Legend:
[1] = tested on: HEp-2; assay: Ability to inhibit growth of human epithelial (H.Ep.-2) cells in culture; format: functional, cell-based; conditions: read-out: I50
[2] = tested on: L1210; assay: Ability to inhibit growth of L1210 cells in culture was determined.; format: functional, cell-based; conditions: Mus musculus, read-out: I50

[N-]=[N+]=CC(=O)C1=NNC([C@@H]2O[C@H](CO)[C@@H](O)[C@H]2O)C1=N (stereo partly drawn)
IC50 [1]: 2 µM
IC50 [2]: 3 µM

CC(=O)c1ncn([C@@H]2O[C@H](CO)[C@@H](O)[C@H]2O)c1N
IC50 [2]: > 120 µM

From ChEMBL document CHEMBL1123682, “5-Amino-4-(diazoacetyl)-1-beta-D-ribofuranosylimidazole, a new antileukemic agent” (J Med Chem, 1987)
